Data taken from patent US20150315241A1, “Antibiotic Peptides” (priority 2007, published 2015).
Values after ≈ are worked out from the molar mass of the structure shown. Where two headings read alike, the source gives them in different places. Where a SMILES comes first, the peptide text is derived from it. [ ]: non-standard residue; d: D form. Arg(NO2) = N=C(NCCC[C@H](N)C(=O)O)N[N+](=O)[O-]; Hyp = O=C(O)[C@@H]1C[C@@H](O)CN1; Cit = NC(=O)NCCC[C@H](N)C(=O)O; Ac6c = NC1(C(=O)O)CCCCC1; Orn = NCCC[C@H](N)C(=O)O; βAla = NCCC(=O)O

Key:
E. coli BL 21 AI = assay: Growth inhibition assay (MIC); assay type: cell-based, Escherichia coli; details: 1% TSB, 37° C., 20 hrs
Procedure: (§1) The minimal inhibition concentrations (MIC) of the apidaecin-derived peptides and peptide-derivatives were determined by a growth inhibition assay using a serial peptide dilution in sterilized round-bottom 96-well plates (polystyrene, U-bottom, Greiner Bio-One GmbH) with a final volume of 100 μL per well. The bacteria, e.g., E. coli BL21 A1, were grown in nutrient broth (NB, Carl Roth GmbH+Co. KG, Karlsruhe, Germany) at 37° C. over night. To each well of the 96-well plate, 50 μL of the overnight culture adjusted to 5×10^6 CFU/mL in 1% TSB were added. Lyophilized peptides and peptidomimetics were dissolved in 1% TSB (tryptic soy broth) or water to give a final concentration of 250 μg/mL. Fifty μL of the peptide or peptidomimetics solution were added to the first well of a row on the plate and mixed. Fifty μL of the first well containing the peptide solution were transferred to the second well, mixed and again 50 μL transferred to the next well and so on. Thereby, a two-fold dilution series was obtained starting at 250 μg/mL in the first well down to 120 ng/mL in the 12th well of a row giving a final peptide or peptidomimetics concentration from 125 μg/mL (well 1) to 60 ng/mL (well 12). Plates were incubated at 37° C. for 20 hrs. The absorbance was measured at 595 nm using a TECAN micro plate spectrophotometer (Tecan, Germany). All peptides and peptidomimetics were measured in triplicates. Sterilized water was used as a negative control.
(§2) The bacteria strains were tested: • Eschericha coli 1103, 10233, BL 21 AI, DC 2, • Klebsiella pneumoniae 681, • Micrococcus luteus ATCC 10240, • Mycobacterium vaccae • Bactillus subtillis 347.

M. luteus ATCC 10240 = assay type: cell-based, Micrococcus luteus
Procedure: as §1, §2

Compound	MIC E. coli BL 21 AI (E. coli BL 21 AI)	MIC M. luteus ATCC 10240 (M. luteus ATCC 10240; ATCC 10240, 20 h)	MIC M. luteus ATCC 10240 (M. luteus ATCC 10240; 1% TSB, 37° C., 20 hrs)
CC[C@H](C)[C@H](NC(=O)[C@H](Cc1ccc(O)cc1)NC(=O)[C@@H](NC(=O)[C@@H]1CCCN1C(=O)[C@H](CCCNC(=N)N)NC(=O)[C@H](CC(N)=O)NC(=O)[C@H](CC(N)=O)NC(=O)[C@H](CCCN)NC(C)=O)C(C)C)C(=O)N1CCC[C@H]1C(=O)N[C@@H](CCC(N)=O)C(=O)N1CCC[C@H]1C(=O)N[C@@H](CCCNC(=N)N)C(=O)N1CCC[C@H]1C(=O)N1CCC[C@H]1C(=O)N[C@@H](Cc1c[nH]cn1)C(=O)N1CCC[C@H]1C(=O)N[C@@H](CCCNC(=N)N)C(=O)NCCC(N)=O [compound 74] (Ac-[Orn]NNRPVYIPQPRPPHPR[βAla]-NH2)	>125 µg/mL	7.81 µg/mL (≈ 3.61 µM)	
H-GNNRPVYIPQPRPPHPR-OH [compound 144]	>125 µg/mL	>125 µg/mL	
CC[C@H](C)[C@H](NC(=O)[C@H](Cc1ccc(O)cc1)NC(=O)[C@@H](NC(=O)[C@@H]1CCCN1C(=O)[C@H](CCCNC(=N)N)NC(=O)[C@H](CC(N)=O)NC(=O)[C@H](CC(N)=O)NC(=O)CN)C(C)C)C(=O)N1CCC[C@H]1C(=O)N[C@@H](CCC(N)=O)C(=O)N1CCC[C@H]1C(=O)N[C@@H](CCCNC(=N)N)C(=O)N1CCC[C@H]1C(=O)N1CCC[C@H]1C(=O)N[C@@H](Cc1c[nH]cn1)C(=O)N1CCC[C@H]1C(=O)N[C@@H](CCCNC(=N)N)C(=O)NC1(C(N)=O)CCCCC1 [compound 80] (H-GNNRPVYIPQPRPPHPR[Ac6c]-NH2)	>125 µg/mL	15.63 µg/mL (≈ 7.37 µM)	
H-NNRPVYIPQPRPPHPRI-NH2 [compound 92]	3.91 µg/mL	31.25 µg/mL	
CC[C@H](C)[C@H](NC(=O)[C@H](Cc1ccc(O)cc1)NC(=O)[C@@H](NC(=O)[C@@H]1CCCN1C(=O)[C@H](CCCNC(=N)N)NC(=O)[C@H](CC(N)=O)NC(=O)[C@H](CC(N)=O)NC(=O)[C@H](CCCN)NC(C)=O)C(C)C)C(=O)N1CCC[C@H]1C(=O)N[C@@H](CCCNC(=N)N)C(=O)N1CCC[C@H]1C(=O)N[C@@H](CCCNC(=N)N)C(=O)N1CCC[C@H]1C(=O)N1CCC[C@H]1C(=O)N[C@@H](Cc1c[nH]cn1)C(=O)N1CCC[C@H]1C(=O)N[C@@H](CCCNC(N)=O)C(=O)N[C@@H](CC(C)C)C(N)=O [compound 150] (Ac-[Orn]NNRPVYIPRPRPPHP[Cit]L-NH2)	32 µg/mL (≈ 14.3 µM)	32 µg/mL (≈ 14.3 µM)	
CC[C@H](C)[C@H](NC(=O)[C@H](Cc1ccc(O)cc1)NC(=O)[C@@H](NC(=O)[C@@H]1CCCN1C(=O)[C@H](CCCNC(=N)N)NC(=O)[C@H](CC(N)=O)NC(=O)[C@H](CC(N)=O)NC(=O)[C@H](CCCN)NC(C)=O)C(C)C)C(=O)N1CCC[C@H]1C(=O)N[C@@H](CCCNC(=N)N)C(=O)N1CCC[C@H]1C(=O)N[C@@H](CCCNC(=N)N)C(=O)N1CCC[C@H]1C(=O)N1CCC[C@H]1C(=O)N[C@@H](Cc1c[nH]cn1)C(=O)N1CCC[C@H]1C(=O)N[C@@H](CCCNC(N)=N[N+](=O)[O-])C(=O)N[C@@H](CC(C)C)C(N)=O [compound 154] (Ac-[Orn]NNRPVYIPRPRPPHP[Arg(NO2)]L-NH2)	16 µg/mL (≈ 7.02 µM)	32 µg/mL (≈ 14 µM)	
CC[C@H](C)[C@H](NC(=O)[C@H](Cc1ccc(O)cc1)NC(=O)[C@@H](NC(=O)[C@@H]1CCCN1C(=O)[C@H](CCCNC(=N)N)NC(=O)[C@H](CC(N)=O)NC(=O)[C@H](CC(N)=O)NC(=O)CNC(C)=O)C(C)C)C(=O)N1CCC[C@H]1C(=O)N[C@@H](CCC(N)=O)C(=O)N1CCC[C@H]1C(=O)N[C@@H](CCCNC(=N)N)C(=O)N1CCC[C@H]1C(=O)N1CCC[C@H]1C(=O)N[C@@H](Cc1c[nH]cn1)C(=O)N1CCC[C@H]1C(=O)N[C@@H](CCCNC(N)=O)C(=O)N[C@@H](CC(C)C)C(N)=O [compound 148] (Ac-GNNRPVYIPQPRPPHP[Cit]L-NH2)	>125 µg/mL	>125 µg/mL	
CC[C@H](C)[C@H](NC(=O)[C@H](Cc1ccc(O)cc1)NC(=O)[C@@H](NC(=O)[C@@H]1CCCN1C(=O)[C@H](CCCNC(=N)N)NC(=O)[C@H](CC(N)=O)NC(=O)[C@H](CC(N)=O)NC(=O)[C@@H](N)CCCN)C(C)C)C(=O)N1CCC[C@H]1C(=O)N[C@@H](CCCNC(=N)N)C(=O)N1CCC[C@H]1C(=O)N[C@@H](CCCNC(=N)N)C(=O)N1CCC[C@H]1C(=O)N1CCC[C@H]1C(=O)N[C@@H](Cc1c[nH]cn1)C(=O)N1CCC[C@H]1C(=O)N[C@@H](CCCNC(N)=O)C(=O)N[C@@H](CC(C)C)C(N)=O [compound 138] (H-[Orn]NNRPVYIPRPRPPHP[Cit]L-NH2)	64 µg/mL (≈ 29.2 µM)	64 µg/mL (≈ 29.2 µM)	
CC[C@H](C)[C@H](NC(=O)[C@H](Cc1ccc(O)cc1)NC(=O)[C@@H](NC(=O)[C@@H]1CCCN1C(=O)[C@H](CCCNC(=N)N)NC(=O)[C@H](CC(N)=O)NC(=O)[C@H](CC(N)=O)NC(=O)[C@H](CCCN)NC(C)=O)C(C)C)C(=O)N1CCC[C@H]1C(=O)N[C@@H](CCCN)C(=O)N1C[C@H](O)C[C@H]1C(=O)N[C@@H](CCCNC(=N)N)C(=O)N1CCC[C@H]1C(=O)N1CCC[C@H]1C(=O)N[C@@H](Cc1c[nH]cn1)C(=O)N1CCC[C@H]1C(=O)N[C@@H](CCCNC(=N)N)C(=O)N[C@@H](CC(C)C)C(N)=O [compound 103] (Ac-[Orn]NNRPVYIP[Orn][Hyp]RPPHPRL-NH2)	1.95 µg/mL (≈ 0.883 µM)		3.91 µg/mL (≈ 1.77 µM)
CC[C@H](C)[C@H](NC(=O)[C@H](CCCNC(=N)N)NC(=O)[C@@H]1CCCN1C(=O)[C@H](Cc1c[nH]cn1)NC(=O)[C@@H]1CCCN1C(=O)[C@@H]1CCCN1C(=O)[C@H](CCCNC(=N)N)NC(=O)[C@@H]1C[C@@H](O)CN1C(=O)[C@H](CCCNC(N)=O)NC(=O)[C@@H]1CCCN1C(=O)[C@@H](NC(=O)[C@H](Cc1ccc(O)cc1)NC(=O)[C@@H](NC(=O)[C@@H]1CCCN1C(=O)[C@H](CCCNC(=N)N)NC(=O)[C@H](CC(N)=O)NC(=O)[C@H](CC(N)=O)NC(=O)CN)C(C)C)[C@@H](C)CC)C(N)=O [compound 91] (H-GNNRPVYIP[Cit][Hyp]RPPHPRI-NH2)	1.95 µg/mL (≈ 0.906 µM)		7.81 µg/mL (≈ 3.63 µM)
H-GNNRPVYIPQPRPPHPAL-NH2 [compound 139]	>125 µg/mL	>125 µg/mL	
CC[C@H](C)[C@H](NC(=O)[C@H](Cc1ccc(O)cc1)NC(=O)[C@@H](NC(=O)[C@@H]1CCCN1C(=O)[C@H](CCCNC(=N)N)NC(=O)[C@H](CC(N)=O)NC(=O)[C@H](CC(N)=O)NC(=O)[C@@H](N)CCCN)C(C)C)C(=O)N1CCC[C@H]1C(=O)N[C@@H](CCCN)C(=O)N1C[C@H](O)C[C@H]1C(=O)N[C@@H](CCCNC(=N)N)C(=O)N1CCC[C@H]1C(=O)N1CCC[C@H]1C(=O)N[C@@H](Cc1c[nH]cn1)C(=O)N1CCC[C@H]1C(=O)N[C@@H](CCCNC(=N)N)C(=O)N[C@@H](CC(C)C)C(N)=O [compound 102] (H-[Orn]NNRPVYIP[Orn][Hyp]RPPHPRL-NH2)	1.95 µg/mL (≈ 0.9 µM)		1.95 µg/mL (≈ 0.9 µM)
H-GNNRPVYIAQPRPPHPRL-NH2 [compound 140]	>125 µg/mL	125 µg/mL	
CC[C@H](C)[C@H](NC(=O)[C@H](CCCNC(=N)N)NC(=O)[C@@H]1CCCN1C(=O)[C@H](Cc1c[nH]cn1)NC(=O)[C@@H]1CCCN1C(=O)[C@@H]1CCCN1C(=O)[C@H](CCCNC(=N)N)NC(=O)[C@@H]1CCCN1C(=O)[C@H](CCC(N)=O)NC(=O)[C@@H]1CCCN1C(=O)[C@@H](NC(=O)[C@H](Cc1ccc(O)cc1)NC(=O)[C@@H](NC(=O)[C@@H]1CCCN1C(=O)[C@H](CCCNC(=N)N)NC(=O)[C@H](CC(N)=O)NC(=O)[C@H](CC(N)=O)NC(=O)[C@H](CCCN)NC(C)=O)C(C)C)[C@@H](C)CC)C(N)=O [compound 63] (Ac-[Orn]NNRPVYIPQPRPPHPRI-NH2)	3.91 µg/mL (≈ 1.77 µM)	3.91 µg/mL (≈ 1.77 µM)	
CC[C@H](C)[C@H](NC(=O)[C@H](Cc1ccc(O)cc1)NC(=O)[C@@H](NC(=O)[C@@H]1CCCN1C(=O)[C@H](CCCNC(=N)N)NC(=O)[C@H](CC(N)=O)NC(=O)[C@H](CC(N)=O)NC(=O)[C@H](CCCN)NC(C)=O)C(C)C)C(=O)N1CCC[C@H]1C(=O)N[C@@H](CCC(N)=O)C(=O)N1CCC[C@H]1C(=O)N[C@@H](CCCNC(=N)N)C(=O)N1CCC[C@H]1C(=O)N1CCC[C@H]1C(=O)N[C@@H](Cc1c[nH]cn1)C(=O)N1CCC[C@H]1C(=O)N[C@@H](CCCNC(=N)N)C(=O)NC1(C(N)=O)CCCCC1 [compound 75] (Ac-[Orn]NNRPVYIPQPRPPHPR[Ac6c]-NH2)	>125 µg/mL	7.81 µg/mL (≈ 3.52 µM)	
